Experiments:
ZEAMX = experiment: Post-emergence herbicidal effect and crop plant compatibility, greenhouse pot test; format: in vivo, Zea mays; conditions: one-leaf stage, rated visually after about 3 weeks vs untreated controls; for plant injury at 320 g/ha: read-out: Post-emergence effect at 320 g/ha against ZEAMX in %
Summary of the method: (§1)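 Greenhouse pot test: weeds and crops sown in sandy loam, sprayed post-emergence at one-leaf stage (2–3 weeks after sowing) with WP or EC formulations plus 0.5% additive at 600 l/ha water, rates 20–320 g/ha. Visual rating about 3 weeks later versus untreated controls (100% = dead, 0% = as control).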

TRZAS = experiment: as above; format: in vivo, Triticum aestivum; conditions: 20 g/ha, one-leaf stage, rated visually after about 3 weeks vs untreated controls; for percent crop injury (phytotoxicity) to wheat, post-emergence at 20 g/ha: Triticum aestivum, 504 h, read-out: Post-emergence effect at 20 g/ha against TRZAS in %
Summary of the method: as §1

ORYSA = experiment: as above; format: in vivo, Oryza sativa; conditions: for Post-emergence effect at 320 g/ha against ORYSA in %: one-leaf stage, rated visually after about 3 weeks vs untreated controls; for Post-emergence effect against ORYSA: visual rating about 3 weeks after treatment, crop plant
Text: • ALOMY: Alopecurus myosuroides SETVI: Setaria viridis • AVEFA: Avena fatua POLCO: Fallopia convolvulus • AMARE: Amaranthus retroflexus ECHCG: Echinochloa crus-galli • LOLRJ: Lolium rigidum STEME: Stellaria media • VERPE: Veronica persica MATIN: Tripleurospermum inodorum • DIGSA: Digitaria sanguinalis ABUTH: Abutylon threophrasti • TRZAS: Triticum aestivum VIOTR: Viola tricolor • BRSNW: Brassica napus ZEAMX: Zea mays • PHBPU: Ipomoea purpurea GLXMA: Glycine max • ORYSA: Oryza sativa HORMU: Hordeum murinum
Seeds of monocotyledonous and dicotyledonous weeds and crop plants are placed in sandy loam in plastic or organic planting pots, covered with soil and cultivated in a greenhouse under controlled growth conditions. 2 to 3 weeks after sowing, the trial plants are treated at the one-leaf stage. The compounds of the invention, formulated in the form of wettable powders (WP) or as emulsion concentrates (EC), are then sprayed onto the green parts of the plants as aqueous suspension or emulsion with addition of 0.5% additive at a water application rate of 600 l/ha (converted). After the test plants have been kept in the greenhouse under optimum growth conditions for about 3 weeks, the activity of the preparations is rated visually in comparison to untreated controls. For example, 100% activity=the plants have died, 0% activity=like control plants.
Tables 20a to 38c below show the effects/crop compatibilities of selected compounds of the general formula (I) on various harmful plants at an application rate corresponding to 20 to 320 g/ha, which were obtained by the trial procedure specified above.

PHBPU = experiment: Post-emergence herbicidal effect, greenhouse pot test; format: in vivo, Ipomoea purpurea; conditions: for pest or weed control at 320 g/ha: Ipomoea purpurea, 504 h, read-out: Post-emergence effect against PHBPU in %
Summary of the method: (§2)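 Visual % activity scored roughly 3 weeks post-spray against untreated plants, where 100% means death and 0% equals control. Plants were treated at the one-leaf stage, 2 to 3 weeks after sowing in sandy loam, at 20 to 320 g/ha.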

VIOTR = experiment: as above; format: in vivo, Viola tricolor
Summary of the method: as §2

ABUTH = experiment: as above; format: in vivo, Abutilon theophrasti; conditions: visual rating about 3 weeks after treatment
Summary of the method: as §2

ALOMY = experiment: as above; format: in vivo, Alopecurus myosuroides; conditions: 320 g/ha, visual rating about 3 weeks after treatment
Summary of the method: as §2

AMARE = experiment: as above; format: in vivo, Amaranthus retroflexus; conditions: visual rating about 3 weeks after treatment
Summary of the method: as §2

AVEFA = experiment: as above; format: in vivo, Avena fatua; conditions: 320 g/ha, visual rating about 3 weeks after treatment
Summary of the method: as §2

DIGSA = experiment: as above; format: in vivo, Digitaria sanguinalis; conditions: 320 g/ha, visual rating about 3 weeks after treatment
Summary of the method: as §2

ECHCG = experiment: as above; format: in vivo, Echinochloa crus-galli
Summary of the method: as §2

MATIN = experiment: as above; format: in vivo, Tripleurospermum inodorum; conditions: 320 g/ha
Summary of the method: as §2

POLCO = experiment: as above; format: in vivo, Fallopia convolvulus
Summary of the method: as §2

SETVI = experiment: as above; format: in vivo, Setaria viridis; conditions: 320 g/ha
Summary of the method: as §2

VERPE = experiment: as above; format: in vivo, Veronica persica
Summary of the method: as §2

LOLRI = experiment: as above; format: in vivo, Lolium rigidum; conditions: Lolium rigidum, 504 h, 320 g/ha, read-out: Post-emergence effect against LOLRI in %
Summary of the method: as §2

COC(=O)C(OC)Oc1nn(-c2ccc(F)nc2)c(-c2ccc(F)nc2)c1Br (centres unmarked) [Example I-15]
plant injury at 20 g/ha (ZEAMX; Zea mays, 504 h, 20 g/ha, read-out: Post-emergence effect at 20 g/ha against ZEAMX in %): 0%
plant injury at 80 g/ha (ZEAMX; Zea mays, 504 h, 80 g/ha, read-out: Post-emergence effect at 80 g/ha against ZEAMX in %): 10%
plant injury at 320 g/ha (ZEAMX; Zea mays, 504 h): 20%
percent crop injury (phytotoxicity) to wheat, post-emergence at 20 g/ha (TRZAS): 0%
Post-emergence effect at 320 g/ha against ORYSA in % (ORYSA): 10%
pest or weed control at 320 g/ha (PHBPU; 320 g/ha): 80%
pest or weed control at 320 g/ha (VIOTR; Viola tricolor, 504 h, 320 g/ha, read-out: Post-emergence effect against VIOTR in %): 80%

COC(=O)C(OC)Oc1nn(-c2cccc(Cl)c2F)c(-c2cncc(F)c2)c1I (centres unmarked) [Example I-19]
Post-emergence effect at 20 g/ha against TRZAS in % (TRZAS): 20%
Post-emergence effect against ORYSA (ORYSA; 20 g/ha): 0%
Post-emergence effect against ORYSA (ORYSA; 80 g/ha): 0%
Post-emergence effect at 320 g/ha against ORYSA in % (ORYSA): 20%
Post-emergence effect against ABUTH (ABUTH; 80 g/ha): 90%
Post-emergence effect against ABUTH (ABUTH; 320 g/ha): 90%
Post-emergence effect against ALOMY (ALOMY): 80%
Post-emergence effect against AMARE (AMARE; 80 g/ha): 80%
Post-emergence effect against AMARE (AMARE; 320 g/ha): 80%
Post-emergence effect against AVEFA (AVEFA): 80%
Post-emergence effect against DIGSA (DIGSA): 90%
Post-emergence effect against ECHCG in % (ECHCG; 80 g/ha): 80%
Post-emergence effect against ECHCG in % (ECHCG; 320 g/ha): 90%
Post-emergence effect against MATIN in % (MATIN): 80%
Post-emergence effect against PHBPU in % (PHBPU; 20 g/ha): 80%
Post-emergence effect against PHBPU in % (PHBPU; 80 g/ha): 90%
Post-emergence effect against PHBPU in % (PHBPU; 320 g/ha): 90%
Post-emergence effect against POLCO in % (POLCO; 80 g/ha): 80%
Post-emergence effect against POLCO in % (POLCO; 320 g/ha): 80%
Post-emergence effect against SETVI in % (SETVI): 80%
Post-emergence effect against VERPE in % (VERPE; 80 g/ha): 80%
Post-emergence effect against VERPE in % (VERPE; 320 g/ha): 80%
Post-emergence effect against VIOTR in % (VIOTR; 80 g/ha): 80%
Post-emergence effect against VIOTR in % (VIOTR; 320 g/ha): 80%

COC(Oc1nn(-c2ccccc2F)c(-c2ccc(F)nc2)c1Br)C(=O)O (centres unmarked) [Example I-24]
Post-emergence effect at 20 g/ha against ZEAMX in % (ZEAMX; 20 g/ha): 0%
Post-emergence effect at 80 g/ha against ZEAMX in % (ZEAMX; 80 g/ha): 10%
plant injury at 320 g/ha (ZEAMX; Zea mays, 504 h): 20%
Post-emergence effect at 20 g/ha against TRZAS in % (TRZAS): 0%
Post-emergence effect at 320 g/ha against ORYSA in % (ORYSA): 10%

COC(=O)C(OC)Oc1nn(-c2cnccn2)c(-c2ccc(F)nc2)c1Br (centres unmarked) [Example I-36]
percent crop injury (phytotoxicity) to wheat, post-emergence at 20 g/ha (TRZAS): 20%
Post-emergence effect at 320 g/ha against ORYSA in % (ORYSA): 20%
pest or weed control at 320 g/ha (AMARE; Amaranthus retroflexus, 504 h, 320 g/ha, read-out: Post-emergence effect against AMARE): 80%
pest or weed control at 320 g/ha (ECHCG; Echinochloa crus-galli, 504 h, 320 g/ha, read-out: Post-emergence effect against ECHCG in %): 90%
pest or weed control at 320 g/ha (LOLRI): 80%
pest or weed control at 320 g/ha (PHBPU; 320 g/ha): 80%
pest or weed control at 320 g/ha (POLCO; Fallopia convolvulus, 504 h, 320 g/ha, read-out: Post-emergence effect against POLCO in %): 80%
pest or weed control at 320 g/ha (SETVI; Setaria viridis, 504 h, read-out: Post-emergence effect against SETVI in %): 80%
